Experimental data published in ChEMBL document CHEMBL1201862, “PubChem BioAssay data set” (2004).
Active and inactive are the calls of the source.

How the values were obtained:
[1] = P. falciparum blood-stage growth inhibition, dose response, NF54 strain, plate reader, dry powder (AID 651889); type: functional, cell-based
[2] = L-6 rat myoblast cytotoxicity, dose response, counter-screen for T. cruzi inhibitor project, cell-based, plate reader, dry powder (AID 651895); type: functional
[3] = T. cruzi growth inhibition in host cells, dose response, cell-based, plate reader, dry powder, set 2 (AID 652275); type: functional
[4] = growth inhibition of intracellular T. cruzi, dose response, cell-based, plate reader, dry powder samples (AID 651845); type: functional
[5] = T. cruzi intracellular amastigote growth inhibition, dose response, imaging, CA-I/72 strain, bovine embryo skeletal muscle, dry powder (AID 651885); type: functional, cell-based
[6] = L. donovani amastigote growth inhibition, dose response, axenic amastigotes, plate reader, dry powder (AID 651892); type: functional, cell-based
[7] = T. cruzi amastigote growth inhibition, dose response, Tulahuen strain, L-6 host cells, dry powder (AID 651890); type: functional, cell-based
[8] = T. b. rhodesiense proliferation inhibition, dose response, STIB900 strain, plate reader, dry powder (AID 651894); type: functional, cell-based
[9] = intracellular Trypanosoma cruzi inhibitors in host cells – cell-based, plate reader, cherry-pick samples, set 3, dose response (AID 651818); type: functional;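 further: compounds incubated with infected cells for about four days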
H4 = assay: Luminescence Cell-Based Dose Response HTS to Identify Activators of 5'UTR Stem-Loop Driven Prion Protein mRNA Translation in H4 Neuroglioblastoma Cells. [Related pubchem assays: 1829 (Project Summary), 1814 (Primary HTS)]; type: functional; conditions: Homo sapiens
[10] = target: Mitogen-activated protein kinase 10 (Homo sapiens, UniProt P53779); assay: Dose response biochemical screening assay for inhibitors of c-Jun N-Terminal Kinase 3 (JNK3). [Related pubchem assays: 746 ]
[11] = M. tuberculosis growth inhibition, HTS (AID 449762); type: functional
[12] = Luminescence Cell-Based Dose Retest to Confirm Inhibitors of Cancer Stem Cells. [Related pubchem assays (depositor defined):AID2717, AID2721]; type: functional; conditions: Homo sapiens
[13] = Concentration-dependent survival of SW480 colon cancer line, luminescence detection with CellTiter-Glo, half-maximal inhibitory concentration (AID 1117338); type: functional
[14] = RKO cell viability reduction, dose response, CellTiter-Glo luminescence (AID 1117322); type: functional
[15] = cytotoxicity toward HCT116 cells – cell-based, CellTiter-Glo luminescence, IC50, dose response (AID 1117332); type: functional; conditions: HCT-116
[16] = SNU-C1 cell viability reduction, dose response, CellTiter-Glo luminescence (AID 1117323); type: functional, cell-based
[17] = cytotoxicity toward Colo320 cells – cell-based, CellTiter-Glo luminescence, IC50, dose response (AID 1117334); type: functional; conditions: COLO 320
[18] = cytotoxicity toward HT-29 cells – cell-based, CellTiter-Glo luminescence, IC50, dose response (AID 1117330); type: functional
[19] = CellTiter-Glo luminescent dose response of DLD-1 viability loss (AID 1117352); type: functional
[20] = HCT116 cell viability decrease, GSK3B pretreatment – CellTiter-Glo, IC50, dose response (AID 1117339); type: functional; conditions: HCT-116
[21] = P. falciparum 3D7-ScDHODH growth inhibitors, dose response, SYBR Green, dry powder samples (AID 1159570); type: functional, cell-based;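 further: parasite growth measured after 72 hours of compound exposure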
[22] = HepG2 cell cytotoxicity, dose response, cytotoxicity control, plate reader, dry powder samples (AID 1159569); type: functional, cell-based;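 further: inhibitor potency with signal falling toward the positive control level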
[23] = P. falciparum Dd2 growth inhibitors, dose response, SYBR Green, cherry-picked samples (AID 1159567); type: functional, cell-based
[24] = P. falciparum Dd2 growth inhibitors, dose response, SYBR Green, dry powder samples (AID 1159566); type: functional, cell-based;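 further: potency for growth inhibition with lower SYBR green DNA signal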
[25] = P. falciparum ATP4 D1247Y mutant growth inhibitors, dose response, NITD609-resistant line, SYBR Green, dry powder (AID 1159571); type: functional, cell-based;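 further: parasites synchronized at ring stage by sorbitol before testing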
[26] = HepG2 cell cytotoxicity, dose response, cytotoxicity control, cherry-picked samples (AID 1159577); type: functional, cell-based

Chain of Mitogen-activated protein kinase 10 (P53779 whole entry): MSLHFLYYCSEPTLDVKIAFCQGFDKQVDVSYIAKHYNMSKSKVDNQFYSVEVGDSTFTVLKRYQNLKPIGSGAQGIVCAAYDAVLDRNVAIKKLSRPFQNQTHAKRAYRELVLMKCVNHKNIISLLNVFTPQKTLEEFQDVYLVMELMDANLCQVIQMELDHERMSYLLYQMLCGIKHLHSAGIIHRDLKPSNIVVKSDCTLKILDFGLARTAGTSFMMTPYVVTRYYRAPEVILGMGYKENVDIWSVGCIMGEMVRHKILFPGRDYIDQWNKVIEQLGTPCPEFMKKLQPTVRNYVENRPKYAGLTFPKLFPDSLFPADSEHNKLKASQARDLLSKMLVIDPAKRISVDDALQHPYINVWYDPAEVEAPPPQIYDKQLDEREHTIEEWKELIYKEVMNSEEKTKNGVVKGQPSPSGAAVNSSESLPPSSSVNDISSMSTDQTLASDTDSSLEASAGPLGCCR

C[C@H](CO)N1C[C@H](C)[C@@H](CN(C)Cc2ccc(Oc3ccccc3)cc2)Oc2c(NC(=O)c3ccncc3)cccc2C1=O
IC50 [1]: 0.872 µM (inactive) | IC50 [2]: 17.9 µM (inactive) | AC50 [3]: 0.000469 µM (active) | AC50 [4]: 0.00152 µM (active) | IC50 [5]: > 20 µM (inactive) | IC50 [6]: 26.3 µM (inactive) | IC50 [7]: 0.0215 µM (active) | IC50 [8]: 3.73 µM (inactive)

C[C@@H]1CN([C@H](C)CO)C(=O)c2cccc(NC(=O)c3ccncc3)c2O[C@H]1CN(C)Cc1ccc(Oc2ccccc2)cc1
AC50 [9]: 0.08 µM (active) | IC50 [1]: 0.82 µM (inactive) | IC50 [2]: 13.3 µM (inactive) | AC50 [3]: 0.0017 µM (active) | AC50 [4]: 0.00521 µM (active) | IC50 [5]: 0.03 µM (active) | IC50 [6]: 43.7 µM (inactive) | IC50 [7]: 0.031 µM (active) | IC50 [8]: 0.242 µM (active)

Oc1[nH]c2ccccc2c1/C=N/c1ccc2c(c1)OCO2
EC50 (H4): 1.25 µM (active) | IC50 [10]: > 93.1 µM (not active)

COc1ccc(N/N=C(\C=O)C(=O)c2cccs2)cc1
IC50 [11]: > 100 µM (active) | AC50 [12]: 3.43 µM (active)

Cc1cc2nc3c(=O)[nH]c(=O)nc-3n(C[C@H](O)[C@H](O)[C@H](O)COP(=O)(O)OP(=O)(O)OC[C@H]3O[C@@H](n4cnc5c(N)ncnc54)[C@H](O)[C@H]3O)c2cc1C
IC50 [13]: > 20 µM (inactive) | IC50 [14]: > 20 µM (inactive) | IC50 [15]: > 20 µM (inactive) | IC50 [16]: > 20 µM (inactive) | IC50 [17]: > 20 µM (inactive) | IC50 [18]: > 20 µM (inactive) | IC50 [19]: > 20 µM (inactive) | IC50 [20]: > 20 µM (inactive)

CCC(=O)N1CCC2(CC1)CN(Cc1cc(F)ccc1F)[C@H](CO)c1[nH]c3cc(OC)ccc3c12
AC50 [21]: 1.83 µM (active) | AC50 [22]: > 100 µM (inactive) | AC50 [23]: 2.98 µM (active) | AC50 [24]: 1.96 µM (active) | AC50 [25]: 1.43 µM (active)

COc1ccc(NC(=O)Nc2ccc3c(c2)CC(=O)N([C@H](C)CO)C[C@H](C)[C@@H](CN(C)Cc2ccc(C(=O)Nc4ccccc4N)cc2)O3)cc1
AC50 [21]: 2.3 µM (active) | AC50 [22]: > 100 µM (inactive) | AC50 [23]: 2.22 µM (active) | AC50 [24]: 1.5 µM (active) | AC50 [26]: > 39 µM (inactive) | AC50 [25]: 2.04 µM (active)

COC(=O)c1ccccc1C(=O)OC [DIMETHYL PHTHALATE]
IC50 [13]: > 20 µM (inactive) | IC50 [14]: > 20 µM (inactive) | IC50 [15]: > 20 µM (inactive) | IC50 [16]: > 20 µM (inactive) | IC50 [17]: > 20 µM (inactive) | IC50 [18]: > 20 µM (inactive) | IC50 [19]: > 20 µM (inactive) | IC50 [20]: > 20 µM (inactive)
